Test results published in ChEMBL document CHEMBL1201862, “PubChem BioAssay data set” (2004).
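Each compound was tested at five concentrations against cells in 96-well plates for 48 hours. GI50 is the concentration that inhibits growth by half.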 Calls of active or inactive are those of the source. Cut-off read from the data, not from the text of the source: active = GI50 up to about 1.1 µM and inactive = higher.

Legend:
Test in all cases: NCI anticancer screen, dose series, 48 h
CAKI-1 = tested on: CAKI-1
IGROV-1 = tested on: IGROV-1
HCT-116 = tested on: HCT-116
RPMI-8226 = tested on: RPMI-8226
NCI-H226 = tested on: NCI-H226
RXF 393 = tested on: RXF 393
SR = tested on: SR
SF-539 = tested on: SF-539
SN12C = tested on: SN12C
NCI-H23 = tested on: NCI-H23
K562 = tested on: K562
OVCAR-8 = tested on: OVCAR-8
SK-OV-3 = tested on: SK-OV-3
HOP-62 = tested on: HOP-62
TK-10 = tested on: TK-10
SF-295 = tested on: SF-295
786-0 = tested on: 786-0

Measured: GI50

O=CN/C=C/c1ccccc1
inactive: CAKI-1 > 100 µM | IGROV-1 > 100 µM | HCT-116 > 100 µM | RPMI-8226 > 100 µM | NCI-H226 > 100 µM | RXF 393 > 100 µM | SR > 94.8 µM | SF-539 > 100 µM | SN12C > 100 µM | NCI-H23 > 100 µM | K562 > 31.6 µM | OVCAR-8 > 100 µM | SK-OV-3 > 100 µM | HOP-62 > 100 µM | TK-10 > 100 µM | SF-295 > 100 µM | 786-0 > 100 µM

O=c1nc(-c2ccccc2)c2c3c(cccn13)CCC2
inactive: CAKI-1 > 100 µM | IGROV-1 > 100 µM | HCT-116 > 100 µM | RPMI-8226 > 100 µM | NCI-H226 54 µM | RXF 393 > 100 µM | SR > 100 µM | SF-539 > 100 µM | SN12C > 100 µM | NCI-H23 > 100 µM | K562 > 100 µM | OVCAR-8 > 100 µM | SK-OV-3 > 100 µM | HOP-62 > 100 µM | TK-10 > 100 µM | SF-295 > 100 µM | 786-0 > 100 µM

Cc1cccc(/C=N/N=C(\N)NO)n1
inactive: CAKI-1 20.8 µM | IGROV-1 7.26 µM | HCT-116 > 100 µM | RXF 393 > 100 µM | SR 42.4 µM | SF-539 26.7 µM | SN12C > 100 µM | NCI-H23 > 100 µM | K562 33.5 µM | OVCAR-8 58.7 µM | SK-OV-3 19.9 µM | HOP-62 17.1 µM | TK-10 > 100 µM | SF-295 22.8 µM | 786-0 36.8 µM

O=[N+]([O-])C=C1c2ccccc2-c2ccccc21
inactive: CAKI-1 11.4 µM | IGROV-1 > 10 µM | HCT-116 4.75 µM | RPMI-8226 2.18 µM | NCI-H226 > 10 µM | RXF 393 17.5 µM | SR 4.65 µM | SF-539 17.5 µM | SN12C 18.9 µM | NCI-H23 16.8 µM | K562 2.52 µM | OVCAR-8 16.4 µM | HOP-62 17.5 µM | TK-10 18.3 µM | SF-295 19 µM | 786-0 16.7 µM

COc1ccc(C(O)C(c2ccc(OCc3ccccc3)cc2)c2ccc(OCc3ccccc3)cc2)cc1 (configuration not stated)
inactive: CAKI-1 > 100 µM | IGROV-1 > 100 µM | HCT-116 > 100 µM | RPMI-8226 > 100 µM | NCI-H226 > 100 µM | RXF 393 > 100 µM | SR > 100 µM | SF-539 > 100 µM | SN12C > 100 µM | NCI-H23 > 100 µM | K562 > 100 µM | OVCAR-8 > 100 µM | SK-OV-3 > 100 µM | HOP-62 > 100 µM | TK-10 > 100 µM | SF-295 > 100 µM | 786-0 > 100 µM

CCC(C)CN1C(=O)NC(C)(Cc2ccccc2)C1=O (configuration not stated)
inactive: CAKI-1 > 100 µM | NCI-H226 > 100 µM | RXF 393 > 100 µM | SR > 100 µM | SF-539 > 100 µM | SN12C > 100 µM | NCI-H23 > 100 µM | OVCAR-8 > 100 µM | HOP-62 > 100 µM | TK-10 > 100 µM | SF-295 > 100 µM | 786-0 > 100 µM

Oc1ncnc2c1nnn2CCCn1nnc2c(O)ncnc21
inactive: CAKI-1 > 100 µM | IGROV-1 > 100 µM | HCT-116 > 100 µM | RPMI-8226 > 100 µM | NCI-H226 > 100 µM | RXF 393 > 100 µM | SR > 100 µM | SF-539 > 100 µM | SN12C > 100 µM | NCI-H23 > 100 µM | K562 > 100 µM | OVCAR-8 > 100 µM | SK-OV-3 > 100 µM | HOP-62 > 100 µM | TK-10 > 100 µM | SF-295 > 100 µM | 786-0 > 100 µM

O=C(CCCCCCCCCCc1ccccc1)C1=C(O)CCCC1=O
inactive: CAKI-1 7.85 µM | IGROV-1 35.4 µM | HCT-116 22.9 µM | RPMI-8226 29 µM | NCI-H226 26.1 µM | RXF 393 25.1 µM | SR 23.8 µM | SF-539 41.9 µM | SN12C 35.2 µM | NCI-H23 20.2 µM | K562 19.8 µM | OVCAR-8 24.4 µM | SK-OV-3 35.6 µM | HOP-62 43.7 µM | TK-10 42.2 µM | SF-295 22.8 µM | 786-0 31.7 µM

Cc1cc(-c2ccccc2)nc(Nc2cc3ccccc3[nH]2)n1
inactive: CAKI-1 > 100 µM | IGROV-1 > 100 µM | HCT-116 > 100 µM | RPMI-8226 > 100 µM | NCI-H226 > 100 µM | SR > 100 µM | SF-539 > 100 µM | SN12C > 100 µM | NCI-H23 > 100 µM | K562 > 100 µM | OVCAR-8 > 100 µM | SK-OV-3 > 100 µM | HOP-62 > 100 µM | TK-10 > 100 µM | SF-295 > 100 µM | 786-0 > 100 µM

O=[N+]([O-])c1nccn1COCCO
inactive: CAKI-1 > 100 µM | HCT-116 > 100 µM | RPMI-8226 > 100 µM | NCI-H226 > 100 µM | RXF 393 > 100 µM | SR > 100 µM | SN12C > 100 µM | NCI-H23 > 100 µM | SK-OV-3 > 100 µM | HOP-62 > 100 µM | TK-10 > 100 µM | SF-295 > 100 µM | 786-0 > 100 µM

[N-]=[N+]=Nc1ccccc1-[n+]1noc([O-])c1Br
inactive: CAKI-1 > 100 µM | IGROV-1 > 100 µM | HCT-116 > 100 µM | RPMI-8226 > 100 µM | NCI-H226 > 100 µM | RXF 393 > 100 µM | SR > 100 µM | SF-539 > 100 µM | SN12C > 100 µM | NCI-H23 > 100 µM | K562 > 100 µM | OVCAR-8 > 100 µM | SK-OV-3 > 100 µM | HOP-62 > 100 µM | TK-10 > 100 µM | SF-295 > 100 µM | 786-0 > 100 µM

COc1ccc(Cc2cc3c(cc2OCC(=O)O)OCO3)cc1
inactive: CAKI-1 > 100 µM | IGROV-1 > 100 µM | HCT-116 > 100 µM | RPMI-8226 > 100 µM | RXF 393 > 100 µM | SR > 100 µM | SF-539 > 100 µM | SN12C > 100 µM | NCI-H23 > 100 µM | K562 > 100 µM | OVCAR-8 > 100 µM | SK-OV-3 > 100 µM | HOP-62 > 100 µM | TK-10 > 100 µM | SF-295 > 100 µM | 786-0 > 100 µM

CCCCSC(=CC(=O)c1cccc(C(=O)C=C(SCCCC)SCCCC)n1)SCCCC
inactive: CAKI-1 > 100 µM | IGROV-1 > 100 µM | HCT-116 > 100 µM | RPMI-8226 > 100 µM | NCI-H226 > 100 µM | RXF 393 > 100 µM | SR > 100 µM | SF-539 > 100 µM | SN12C > 100 µM | NCI-H23 > 100 µM | K562 > 100 µM | OVCAR-8 > 100 µM | SK-OV-3 > 100 µM | HOP-62 > 100 µM | TK-10 > 100 µM | SF-295 > 100 µM | 786-0 > 100 µM
